Values after ≈ are worked out from the molar mass of the structure shown.
Key:
[1] = Stability in human plasma; type: in vitro ADME; conditions: read-out: Plasma Stability T1/2
Method in brief: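 Pooled human plasma (pH 7.4-8) at 37° C, test compound spiked from a 0.02 mM solution in phosphate buffer with 0.5% BSA. Samples taken at 0, 5, 15, 30, 45 and 60 min, quenched with acetonitrile containing internal standard, and remaining compound measured by LC/MS.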

[2] = target: glycolate oxidase (GOX) in HepaRG-CAR cells (Homo sapiens (Human), UniProt Q9UJM8); assay: HepaRG-CAR cell-based assay for quantitation of glycolate oxidase inhibition (cellular glycolate flux, GC-MS); conditions: HepaRG-CAR cells, 500 μM glycolate, 48 hours incubation; read-out: IC50
[3] = Solubility in aqueous solution (deionized, distilled water); type: physicochemical; conditions: kinetic from dmso stock, 1% DMSO, read-out: Aqueous Solubility H2O
Method in brief: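 DMSO stock (10 mM) diluted into 100 mM phosphate buffer pH 7.4, or into deionized distilled water for the aqueous assay, at 1% final DMSO and shaken 1 h at room temperature. After centrifugation, supernatants quantified by LC-MS/MS against a calibration curve with internal standard.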

[4] = Metabolic stability in human liver microsomal preparation; type: in vitro ADME; conditions: pH 7.4, human liver microsomes, NADPH, 37° C.
Method in brief: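 Compound at 1.5 μM with 0.75 mg/mL human liver microsomes (concentrations before NADPH addition) in 0.1 M potassium phosphate, 1 mM EDTA, pH 7.4 was preincubated 5 min at 37 °C, then started with NADPH. Samples at 0, 5, 15, 30 and 45 min were quenched with acetonitrile/internal standard and analysed by LC/MS.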

glycolate oxidase (GOX) in HepaRG-CAR cells, sequence (Q9UJM8 whole entry): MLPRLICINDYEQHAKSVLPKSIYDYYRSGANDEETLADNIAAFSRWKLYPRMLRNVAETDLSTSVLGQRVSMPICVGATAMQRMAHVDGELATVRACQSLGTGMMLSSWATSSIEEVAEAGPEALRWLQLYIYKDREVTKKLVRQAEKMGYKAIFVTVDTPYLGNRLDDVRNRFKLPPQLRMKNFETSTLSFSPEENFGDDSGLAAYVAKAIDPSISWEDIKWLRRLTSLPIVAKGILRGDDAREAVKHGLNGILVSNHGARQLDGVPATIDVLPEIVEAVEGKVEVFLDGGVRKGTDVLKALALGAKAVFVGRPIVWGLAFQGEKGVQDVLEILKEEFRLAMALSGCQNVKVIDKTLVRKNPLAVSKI

- half-life at 2 μM [1]: 42.3 min
- IC50 [2]: 1000 nM
- solubility at 1 h [3]: 83.8 µM (≈ 21.4 µg/mL)
- CLint scaled at 1 μM [4]: 1.19 mL/min/kg
- half-life at 1 μM ([4]; 0-45 min, read-out: Metabolic Stability t1/2): 1460 min
Compound: O=C(O)c1nn[nH]c1Sc1ccc(Cl)cc1 [Example I-001, 5-((4-chlorophenyl)thio)-1H-1,2,3-triazole-4-carboxylic acid]
